Experiments:
[1] = The drug is tested on Clostridium sp. strain: fecal isolate for biotransformation. The drug concentrations were measured before and after a 12-h incubation by liquid-chromatography-coupled mass spectrometry (LC–MS); settings: 2 µM
[2] = The drug is tested on Collinsella intestinalis strain: DSM13280 for biotransformation. The drug concentrations were measured before and after a 12-h incubation by liquid-chromatography-coupled mass spectrometry (LC–MS); settings: 2 µM
[3] = The drug is tested on Bacteroides dorei strain: DSM17855 for biotransformation. The drug concentrations were measured before and after a 12-h incubation by liquid-chromatography-coupled mass spectrometry (LC–MS); settings: phocaeicola dorei, 2 µM
[4] = The drug is tested on Bacteroides ovatus strain: ATCC8483 for biotransformation. The drug concentrations were measured before and after a 12-h incubation by liquid-chromatography-coupled mass spectrometry (LC–MS); settings: 2 µM
[5] = The drug is tested on Anaerococcus hydrogenalis strain: DSM7454 for biotransformation. The drug concentrations were measured before and after a 12-h incubation by liquid-chromatography-coupled mass spectrometry (LC–MS); settings: 2 µM
[6] = The drug is tested on Blautia hansenii strain: DSM20583 for biotransformation. The drug concentrations were measured before and after a 12-h incubation by liquid-chromatography-coupled mass spectrometry (LC–MS); settings: 2 µM
[7] = bacteroides stercoris, 12 h, 2 µM
Description: The drug is tested on Bacteroides stercoris strain: ATCC43183 for biotransformation. The drug concentrations were measured before and after a 12-h incubation by liquid-chromatography-coupled mass spectrometry (LC–MS)

[8] = bacteroides eggerthii, 12 h, 2 µM
Description: The drug is tested on Bacteroides eggerthii strain: DSM20697 for biotransformation. The drug concentrations were measured before and after a 12-h incubation by liquid-chromatography-coupled mass spectrometry (LC–MS)

[9] = The drug is tested on Ruminococcus torques strain: ATCC27756 for biotransformation. The drug concentrations were measured before and after a 12-h incubation by liquid-chromatography-coupled mass spectrometry (LC–MS); format: ADME; parameters: dose 2 uM, timepoint 0 vs 12 hours; settings: 2 µM
[10] = The drug is tested on Anaerotruncus colihominis strain: DSM17241 for biotransformation. The drug concentrations were measured before and after a 12-h incubation by liquid-chromatography-coupled mass spectrometry (LC–MS); settings: 2 µM
[11] = The drug is tested on Eubacterium rectale strain: ATCC33656 for biotransformation. The drug concentrations were measured before and after a 12-h incubation by liquid-chromatography-coupled mass spectrometry (LC–MS); settings: agathobacter rectalis, 2 µM
[12] = The drug is tested on Bifidobacterium longum subsp. Infantis strain: CCUG52486 for biotransformation. The drug concentrations were measured before and after a 12-h incubation by liquid-chromatography-coupled mass spectrometry (LC–MS); settings: 2 µM
[13] = The drug is tested on Bifidobacterium breve strain: DSM20213 for biotransformation. The drug concentrations were measured before and after a 12-h incubation by liquid-chromatography-coupled mass spectrometry (LC–MS); settings: 2 µM
[14] = bacteroides thetaiotaomicron, 12 h, 2 µM
Description: The drug is tested on Bacteroides thetaiotaomicron strain: 7330 for biotransformation. The drug concentrations were measured before and after a 12-h incubation by liquid-chromatography-coupled mass spectrometry (LC–MS)

[15] = The drug is tested on Bacteroides sp. WH2 strain: WH2 for biotransformation. The drug concentrations were measured before and after a 12-h incubation by liquid-chromatography-coupled mass spectrometry (LC–MS); settings: bacteroides sp. wh2, 12 h, 2 µM
[16] = limosilactobacillus reuteri cf48-3a, 12 h, 2 µM
Description: The drug is tested on Lactobacillus reuteri CF48-3A strain: BEI HM-102 for biotransformation. The drug concentrations were measured before and after a 12-h incubation by liquid-chromatography-coupled mass spectrometry (LC–MS)

[17] = parabacteroides distasonis, 12 h, 2 µM
Description: The drug is tested on Parabacteroides distasonis strain: ATCC8503 for biotransformation. The drug concentrations were measured before and after a 12-h incubation by liquid-chromatography-coupled mass spectrometry (LC–MS)

[18] = The drug is tested on Providencia rettgeri strain: DSM1131 for biotransformation. The drug concentrations were measured before and after a 12-h incubation by liquid-chromatography-coupled mass spectrometry (LC–MS); format: ADME; parameters: dose 2 uM, timepoint 0 vs 12 hours; settings: 2 µM
[19] = The drug is tested on Bacteroides finegoldii strain: DSM17565 for biotransformation. The drug concentrations were measured before and after a 12-h incubation by liquid-chromatography-coupled mass spectrometry (LC–MS); settings: 2 µM
[20] = The drug is tested on Bacteroides pectinophilus strain: ATCC43243 for biotransformation. The drug concentrations were measured before and after a 12-h incubation by liquid-chromatography-coupled mass spectrometry (LC–MS); settings: 2 µM

SMILES	Bacterial Biotransformation [1]	Bacterial Biotransformation [2]	Bacterial Biotransformation [3]	Bacterial Biotransformation [4]	Bacterial Biotransformation [5]	Bacterial Biotransformation [6]	Bacterial Biotransformation [7]	Bacterial Biotransformation [8]	Bacterial Biotransformation [9]	Bacterial Biotransformation [10]	Bacterial Biotransformation [11]	Bacterial Biotransformation [12]	Bacterial Biotransformation [13]	Bacterial Biotransformation [14]	Bacterial Biotransformation [15]	Bacterial Biotransformation [16]	Bacterial Biotransformation [17]	Bacterial Biotransformation [18]	Bacterial Biotransformation [19]	Bacterial Biotransformation [20]
CC(=O)CCCCn1c(=O)c2c(ncn2C)n(C)c1=O [PENTOXIFYLLINE]	Compound NOT metabolized	Compound NOT metabolized	Compound NOT metabolized	Compound NOT metabolized	Compound NOT metabolized	Compound NOT metabolized	Compound NOT metabolized	Compound NOT metabolized	Compound NOT metabolized	Compound NOT metabolized	Compound NOT metabolized	Compound NOT metabolized	Compound NOT metabolized	Compound NOT metabolized	Compound NOT metabolized	–	–	–	–	–
N#Cc1ccc(C(c2ccc(C#N)cc2)n2cncn2)cc1 [LETROZOLE]	Compound NOT metabolized	Compound NOT metabolized	Compound NOT metabolized	Compound NOT metabolized	Compound NOT metabolized	Compound NOT metabolized	Compound NOT metabolized	Compound NOT metabolized	Compound NOT metabolized	Compound NOT metabolized	–	Compound NOT metabolized	Compound NOT metabolized	Compound NOT metabolized	Compound NOT metabolized	Compound NOT metabolized	Compound NOT metabolized	Compound NOT metabolized	Compound NOT metabolized	Compound NOT metabolized
CC(=O)O[C@]1(C(C)=O)CC[C@H]2[C@@H]3C=C(Cl)C4=CC(=O)[C@@H]5C[C@@H]5[C@]4(C)[C@H]3CC[C@@]21C [CYPROTERONE ACETATE]	Compound metabolized	Compound NOT metabolized	Compound metabolized	Compound metabolized	Compound NOT metabolized	Compound metabolized	Compound metabolized	Compound metabolized	Compound NOT metabolized	Compound metabolized	–	Compound NOT metabolized	Compound NOT metabolized	Compound metabolized	Compound NOT metabolized	Compound NOT metabolized	Compound metabolized	Compound NOT metabolized	Compound NOT metabolized	Compound metabolized
C[C@H]1O[C@@H](O[C@H]2[C@@H](O)C[C@H](O[C@H]3[C@@H](O)C[C@H](O[C@H]4CC[C@@]5(C)[C@H](CC[C@@H]6[C@@H]5C[C@@H](O)[C@]5(C)[C@@H](C7=CC(=O)OC7)CC[C@]65O)C4)O[C@@H]3C)O[C@@H]2C)C[C@H](O)[C@@H]1O [DIGOXIN]	Compound metabolized	Compound NOT metabolized	Compound metabolized	Compound metabolized	Compound NOT metabolized	Compound metabolized	Compound metabolized	Compound metabolized	Compound NOT metabolized	Compound NOT metabolized	–	Compound NOT metabolized	Compound NOT metabolized	Compound metabolized	Compound NOT metabolized	Compound NOT metabolized	Compound NOT metabolized	Compound NOT metabolized	–	Compound NOT metabolized
COC(=O)C1=C(C)NC(C)=C(C(=O)OC(C)C)C1c1cccc2nonc12 (centres undefined) [ISRADIPINE]	Compound NOT metabolized	Compound NOT metabolized	Compound NOT metabolized	Compound NOT metabolized	–	Compound NOT metabolized	Compound NOT metabolized	Compound NOT metabolized	Compound NOT metabolized	Compound NOT metabolized	–	Compound NOT metabolized	Compound NOT metabolized	Compound NOT metabolized	–	Compound NOT metabolized	Compound NOT metabolized	Compound NOT metabolized	Compound NOT metabolized	Compound NOT metabolized
Cc1ccnc2c1NC(=O)c1cccnc1N2C1CC1 [NEVIRAPINE]	Compound metabolized	Compound NOT metabolized	Compound NOT metabolized	Compound NOT metabolized	Compound NOT metabolized	Compound metabolized	Compound NOT metabolized	Compound NOT metabolized	Compound NOT metabolized	Compound NOT metabolized	–	Compound NOT metabolized	Compound NOT metabolized	Compound NOT metabolized	Compound NOT metabolized	Compound NOT metabolized	Compound NOT metabolized	Compound NOT metabolized	Compound NOT metabolized	Compound NOT metabolized
C=CCN1CC[C@]23c4c5ccc(O)c4O[C@H]2C(=O)CC[C@@]3(O)[C@H]1C5 [NALOXONE]	Compound metabolized	Compound NOT metabolized	Compound metabolized	Compound metabolized	Compound NOT metabolized	Compound metabolized	–	Compound metabolized	Compound metabolized	Compound NOT metabolized	–	Compound NOT metabolized	Compound NOT metabolized	Compound metabolized	Compound NOT metabolized	Compound metabolized	Compound NOT metabolized	Compound NOT metabolized	Compound NOT metabolized	Compound NOT metabolized
CCN(CC)CC#CCOC(=O)C(O)(c1ccccc1)C1CCCCC1.Cl (centres undefined) [OXYBUTYNIN CHLORIDE]	Compound metabolized	Compound NOT metabolized	Compound metabolized	Compound NOT metabolized	Compound NOT metabolized	Compound metabolized	Compound NOT metabolized	–	–	Compound NOT metabolized	–	–	Compound NOT metabolized	Compound NOT metabolized	Compound NOT metabolized	Compound NOT metabolized	Compound NOT metabolized	Compound NOT metabolized	–	–
